Experiments:
Format in all cases: cell-based, human
RXF 393 = assay: NCI60 screening, Renal Cancer, RXF 393
HCT-15 = assay: NCI60 screening, Colon Cancer, HCT-15
NCI-H23 = assay: NCI60 screening, Non-Small Cell Lung Cancer, NCI-H23
U251 = assay: NCI60 screening, CNS Cancer, U251
BT-549 = assay: NCI60 screening, Breast Cancer, BT-549
SNB-19 = assay: NCI60 screening, CNS Cancer, SNB-19
HL-60(TB) = assay: NCI60 screening, Leukemia, HL-60(TB)
PC-3 = assay: NCI60 screening, Prostate Cancer, PC-3
EKVX = assay: NCI60 screening, Non-Small Cell Lung Cancer, EKVX
MDA-MB-231/ATCC = assay: NCI60 screening, Breast Cancer, MDA-MB-231/ATCC
HT29 = assay: NCI60 screening, Colon Cancer, HT29
CCRF-CEM = assay: NCI60 screening, Leukemia, CCRF-CEM
U0-31 = assay: NCI60 screening, Renal Cancer, U0-31
HS 578T = assay: NCI60 screening, Breast Cancer, HS 578T
RPMl-8226 = assay: NCI60 screening, Leukemia, RPMl-8226
MOLT-4 = assay: NCI60 screening, Leukemia, MOLT-4
LOX IMVI = assay: NCI60 screening, Melanoma, LOX IMVI
[1] = Homo sapiens, read-out: LC50 (the source's name)

Cc1ccc2c(c1)c(CO)cn2S(=O)(=O)c1ccc(Cl)c([N+](=O)[O-])c1 [OSU-A9M, [1-(4-chloro-3-nitro-benzenesulfonyl)-5-methyl-1H-indol-3-yl]-methanol]
TGI (RXF 393): 4.10E−6 | GI50 (RXF 393; Homo sapiens): 1.94 µM | CC50 (RXF 393; [1]): 8.65 µM | Percent Growth (RXF 393; Log10 Concentration −4.0): −85% | Percent Growth (RXF 393; Log10 Concentration −5.0): −60% | Percent Growth (RXF 393; Log10 Concentration −6.0): 94% | Percent Growth (RXF 393; Log10 Concentration −7.0): 102% | Percent Growth (RXF 393; Log10 Concentration −8.0): 101% | TGI (HCT-15): 2.82E−6 | GI50 (HCT-15; Homo sapiens): 1.5 µM | CC50 (HCT-15; [1]): 5.31 µM | Percent Growth (HCT-15; Log10 Concentration −4.0): −100% | Percent Growth (HCT-15; Log10 Concentration −5.0): −100% | Percent Growth (HCT-15; Log10 Concentration −6.0): 82% | Percent Growth (HCT-15; Log10 Concentration −7.0): 94% | Percent Growth (HCT-15; Log10 Concentration −8.0): 92% | TGI (NCI-H23): 2.89E−6 | GI50 (NCI-H23; Homo sapiens): 1.53 µM | CC50 (NCI-H23; [1]): 5.46 µM | Percent Growth (NCI-H23; Log10 Concentration −4.0): −96% | Percent Growth (NCI-H23; Log10 Concentration −5.0): −97% | Percent Growth (NCI-H23; Log10 Concentration −6.0): 83% | Percent Growth (NCI-H23; Log10 Concentration −7.0): 90% | Percent Growth (NCI-H23; Log10 Concentration −8.0): 92% | TGI (U251): 2.91E−6 | GI50 (U251; Homo sapiens, U-251): 1.57 µM | CC50 (U251; Homo sapiens, U-251, read-out: LC50 (the source's name)): 5.4 µM | Percent Growth (U251; Log10 Concentration −4.0): −100% | Percent Growth (U251; Log10 Concentration −5.0): −100% | Percent Growth (U251; Log10 Concentration −6.0): 87% | Percent Growth (U251; Log10 Concentration −7.0): 87% | Percent Growth (U251; Log10 Concentration −8.0): 90% | TGI (BT-549): 3.13E−6 | GI50 (BT-549; Homo sapiens): 1.67 µM | CC50 (BT-549; [1]): 5.89 µM | Percent Growth (BT-549; Log10 Concentration −4.0): −92% | Percent Growth (BT-549; Log10 Concentration −5.0): −92% | Percent Growth (BT-549; Log10 Concentration −6.0): 91% | Percent Growth (BT-549; Log10 Concentration −7.0): 87% | Percent Growth (BT-549; Log10 Concentration −8.0): 85% | TGI (SNB-19): 2.97E−6 | GI50 (SNB-19; Homo sapiens): 1.62 µM | CC50 (SNB-19; [1]): 5.45 µM | Percent Growth (SNB-19; Log10 Concentration −4.0): −100% | Percent Growth (SNB-19; Log10 Concentration −5.0): −100% | Percent Growth (SNB-19; Log10 Concentration −6.0): 90% | Percent Growth (SNB-19; Log10 Concentration −7.0): 86% | Percent Growth (SNB-19; Log10 Concentration −8.0): 88% | TGI (HL-60(TB)): 4.80E−6 | GI50 (HL-60(TB); Homo sapiens): 1.55 µM | CC50 (HL-60(TB); [1]): 32.5 µM | Percent Growth (HL-60(TB); Log10 Concentration −4.0): −67% | Percent Growth (HL-60(TB); Log10 Concentration −5.0): −32% | Percent Growth (HL-60(TB); Log10 Concentration −6.0): 69% | Percent Growth (HL-60(TB); Log10 Concentration −7.0): 84% | Percent Growth (HL-60(TB); Log10 Concentration −8.0): 91% | TGI (PC-3): 4.32E−6 | GI50 (PC-3; Homo sapiens): 1.62 µM | CC50 (PC-3; [1]): 13.9 µM | Percent Growth (PC-3; Log10 Concentration −4.0): −93% | Percent Growth (PC-3; Log10 Concentration −5.0): −43% | Percent Growth (PC-3; Log10 Concentration −6.0): 75% | Percent Growth (PC-3; Log10 Concentration −7.0): 74% | Percent Growth (PC-3; Log10 Concentration −8.0): 80% | TGI (EKVX): 3.15E−6 | GI50 (EKVX; Homo sapiens): 1.6 µM | CC50 (EKVX; [1]): 6.21 µM | Percent Growth (EKVX; Log10 Concentration −4.0): −93% | Percent Growth (EKVX; Log10 Concentration −5.0): −85% | Percent Growth (EKVX; Log10 Concentration −6.0): 85% | Percent Growth (EKVX; Log10 Concentration −7.0): 99% | Percent Growth (EKVX; Log10 Concentration −8.0): 91% | TGI (MDA-MB-231/ATCC): 2.96E−6 | GI50 (MDA-MB-231/ATCC; Homo sapiens): 1.44 µM | CC50 (MDA-MB-231/ATCC; [1]): 6.1 µM | Percent Growth (MDA-MB-231/ATCC; Log10 Concentration −4.0): −78% | Percent Growth (MDA-MB-231/ATCC; Log10 Concentration −5.0): −84% | Percent Growth (MDA-MB-231/ATCC; Log10 Concentration −6.0): 75% | Percent Growth (MDA-MB-231/ATCC; Log10 Concentration −7.0): 91% | Percent Growth (MDA-MB-231/ATCC; Log10 Concentration −8.0): 98% | TGI (HT29): 1.59E−6 | GI50 (HT29; Homo sapiens, HT-29): 0.434 µM | CC50 (HT29; Homo sapiens, HT-29, read-out: LC50 (the source's name)): 3.98 µM | Percent Growth (HT29; Log10 Concentration −4.0): −100% | Percent Growth (HT29; Log10 Concentration −5.0): −100% | Percent Growth (HT29; Log10 Concentration −6.0): 25% | Percent Growth (HT29; Log10 Concentration −7.0): 94% | Percent Growth (HT29; Log10 Concentration −8.0): 91% | TGI (CCRF-CEM): 2.58E−6 | GI50 (CCRF-CEM; Homo sapiens): 0.3 µM | CC50 (CCRF-CEM; [1]): 87.4 µM | Percent Growth (CCRF-CEM; Log10 Concentration −4.0): −52% | Percent Growth (CCRF-CEM; Log10 Concentration −5.0): −21% | Percent Growth (CCRF-CEM; Log10 Concentration −6.0): 14% | Percent Growth (CCRF-CEM; Log10 Concentration −7.0): 82% | Percent Growth (CCRF-CEM; Log10 Concentration −8.0): 84% | TGI (U0-31): 3.46E−6 | GI50 (U0-31; Homo sapiens): 1.83 µM | CC50 (U0-31; [1]): 6.54 µM | Percent Growth (U0-31; Log10 Concentration −4.0): −100% | Percent Growth (U0-31; Log10 Concentration −5.0): −83% | Percent Growth (U0-31; Log10 Concentration −6.0): 97% | Percent Growth (U0-31; Log10 Concentration −7.0): 98% | Percent Growth (U0-31; Log10 Concentration −8.0): 87% | TGI (HS 578T): 3.05E−6 | GI50 (HS 578T; Homo sapiens): 1.02 µM | CC50 (HS 578T; [1]): 9.11 µM | Percent Growth (HS 578T; Log10 Concentration −4.0): −63% | Percent Growth (HS 578T; Log10 Concentration −5.0): −54% | Percent Growth (HS 578T; Log10 Concentration −6.0): 51% | Percent Growth (HS 578T; Log10 Concentration −7.0): 88% | Percent Growth (HS 578T; Log10 Concentration −8.0): 83% | TGI (RPMl-8226): 3.80E−6 | GI50 (RPMl-8226; Homo sapiens): 1.58 µM | CC50 (RPMl-8226; [1]): 9.14 µM | Percent Growth (RPMl-8226; Log10 Concentration −4.0): −68% | Percent Growth (RPMl-8226; Log10 Concentration −5.0): −55% | Percent Growth (RPMl-8226; Log10 Concentration −6.0): 76% | Percent Growth (RPMl-8226; Log10 Concentration −7.0): 84% | Percent Growth (RPMl-8226; Log10 Concentration −8.0): 93% | TGI (MOLT-4): 1.96E−6 | GI50 (MOLT-4; Homo sapiens): 0.334 µM | LC50 (MOLT-4; Homo sapiens): 18.3 µM | Percent Growth (MOLT-4; Log10 Concentration −4.0): −64% | Percent Growth (MOLT-4; Log10 Concentration −5.0): −45% | Percent Growth (MOLT-4; Log10 Concentration −6.0): 19% | Percent Growth (MOLT-4; Log10 Concentration −7.0): 85% | Percent Growth (MOLT-4; Log10 Concentration −8.0): 92% | TGI (LOX IMVI): 2.86E−7 | GI50 (LOX IMVI; Homo sapiens): 0.138 µM | CC50 (LOX IMVI; [1]): 0.594 µM | Percent Growth (LOX IMVI; Log10 Concentration −4.0): −100% | Percent Growth (LOX IMVI; Log10 Concentration −5.0): −100% | Percent Growth (LOX IMVI; Log10 Concentration −6.0): −86% | Percent Growth (LOX IMVI; Log10 Concentration −7.0): 72% | Percent Growth (LOX IMVI; Log10 Concentration −8.0): 84%
